This is an account of results in article PMC9516332 (Frontiers in Oncology, 2022).

The structures appear in SMILES notation. Read-outs that look alike come from different tables or passages of the source.

Holding throughout (test): Kinase panel profiling at 1 µmol/L (MSA or IMAP), percentage inhibition
Format in all cases: biochemical

For assay [1], the target named is T1, panel of 255 wild-type kinases (Homo sapiens, UniProt O15111).
T1 sequence (O15111 1-745): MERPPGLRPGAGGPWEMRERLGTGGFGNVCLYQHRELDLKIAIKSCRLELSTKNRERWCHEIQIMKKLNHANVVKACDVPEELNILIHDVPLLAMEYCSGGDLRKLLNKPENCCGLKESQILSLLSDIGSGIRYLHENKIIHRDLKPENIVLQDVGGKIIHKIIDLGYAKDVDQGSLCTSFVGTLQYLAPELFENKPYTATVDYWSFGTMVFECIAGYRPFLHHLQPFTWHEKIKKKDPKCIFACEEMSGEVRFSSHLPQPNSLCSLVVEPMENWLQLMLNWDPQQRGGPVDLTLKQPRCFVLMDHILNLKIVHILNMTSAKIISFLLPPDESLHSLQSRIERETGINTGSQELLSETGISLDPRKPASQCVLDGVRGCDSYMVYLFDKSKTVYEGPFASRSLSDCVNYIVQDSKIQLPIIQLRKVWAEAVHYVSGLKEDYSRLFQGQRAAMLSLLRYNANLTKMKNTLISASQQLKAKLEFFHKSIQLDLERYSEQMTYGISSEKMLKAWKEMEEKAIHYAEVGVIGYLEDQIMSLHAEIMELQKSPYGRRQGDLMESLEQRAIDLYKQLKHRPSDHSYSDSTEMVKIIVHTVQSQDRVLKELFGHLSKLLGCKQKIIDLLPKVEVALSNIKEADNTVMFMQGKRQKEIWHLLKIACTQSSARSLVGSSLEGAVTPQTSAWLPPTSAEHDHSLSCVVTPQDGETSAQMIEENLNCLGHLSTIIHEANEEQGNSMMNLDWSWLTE
Conditions: read-out: %-inhibition at 1 µmol/L, IKKα.

For assay [2], the target named is panel of 255 wild-type kinases (Homo sapiens, UniProt O95819). Conditions: read-out: %-inhibition at 1 µmol/L, HGK.
The target of assay [3] is panel of 255 wild-type kinases (Homo sapiens, UniProt P10721). Conditions: read-out: %-inhibition at 1 µmol/L, KIT.
Assay [4] addresses panel of 255 wild-type kinases (Homo sapiens, UniProt P17252). Conditions: read-out: %-inhibition at 1 µmol/L, PKCα.
Assay [5] has as its target panel of 255 wild-type kinases (Homo sapiens, UniProt P49759). Conditions: read-out: %-inhibition at 1 µmol/L, CLK1.
Assay [6] addresses panel of 255 wild-type kinases (Homo sapiens, UniProt P51812). Conditions: read-out: %-inhibition at 1 µmol/L, RSK2.
For assay [7], the target named is panel of 255 wild-type kinases (Homo sapiens, UniProt Q00526). Conditions: read-out: %-inhibition CDK3/CycE1.
Assay [8] addresses panel of 255 wild-type kinases (Homo sapiens, UniProt Q05397). Conditions: read-out: %-inhibition at 1 µmol/L, FAK.
In assay [9] the target is panel of 255 wild-type kinases (Homo sapiens, UniProt Q9H4B4). Conditions: read-out: %-inhibition at 1 µmol/L, PLK3.
Assay [10] deals with panel of 255 wild-type kinases (Homo sapiens, UniProt Q9NQU5). Conditions: read-out: %-inhibition, PAK6.
Assay [11] concerns the target T2, panel of 255 wild-type kinases (Homo sapiens, UniProt Q9UHD2).
T2 sequence (Q9UHD2 1-729): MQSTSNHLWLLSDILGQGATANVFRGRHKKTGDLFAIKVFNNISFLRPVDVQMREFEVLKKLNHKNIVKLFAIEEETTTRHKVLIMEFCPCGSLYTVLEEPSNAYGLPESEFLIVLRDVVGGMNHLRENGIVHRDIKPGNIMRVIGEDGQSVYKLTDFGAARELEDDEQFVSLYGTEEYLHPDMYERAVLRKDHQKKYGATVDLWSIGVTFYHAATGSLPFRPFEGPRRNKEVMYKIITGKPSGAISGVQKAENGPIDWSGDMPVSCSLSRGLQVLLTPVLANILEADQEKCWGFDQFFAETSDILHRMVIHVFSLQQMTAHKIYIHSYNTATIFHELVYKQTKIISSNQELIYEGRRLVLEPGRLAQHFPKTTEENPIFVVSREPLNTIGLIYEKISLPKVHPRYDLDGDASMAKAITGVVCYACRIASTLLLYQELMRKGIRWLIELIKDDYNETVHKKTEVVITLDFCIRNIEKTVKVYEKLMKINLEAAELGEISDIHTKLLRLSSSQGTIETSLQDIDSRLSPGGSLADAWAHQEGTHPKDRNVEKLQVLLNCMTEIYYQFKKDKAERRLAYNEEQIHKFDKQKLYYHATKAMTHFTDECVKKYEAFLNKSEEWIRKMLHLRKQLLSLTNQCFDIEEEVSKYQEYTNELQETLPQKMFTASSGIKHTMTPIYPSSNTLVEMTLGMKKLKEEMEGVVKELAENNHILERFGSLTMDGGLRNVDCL
Conditions: read-out: %-inhibition at 1 µmol/L, TBK1.

Assay [12] addresses T3, panel of 255 wild-type kinases (Homo sapiens, UniProt Q9UQB9).
T3 sequence (Q9UQB9 1-309): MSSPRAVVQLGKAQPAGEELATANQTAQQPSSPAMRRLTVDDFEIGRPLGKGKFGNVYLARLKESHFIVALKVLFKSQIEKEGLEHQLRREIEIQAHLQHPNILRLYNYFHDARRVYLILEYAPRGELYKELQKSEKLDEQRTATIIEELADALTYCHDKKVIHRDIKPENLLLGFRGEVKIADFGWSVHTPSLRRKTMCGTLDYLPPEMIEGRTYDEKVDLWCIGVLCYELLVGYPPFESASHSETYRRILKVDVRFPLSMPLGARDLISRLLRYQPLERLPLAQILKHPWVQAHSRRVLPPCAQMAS
Conditions: read-out: %-inhibition AurC.

Where [13] appears, read: kinase IKKα, 1 µmol/L single concentration.
Setting [14] is: kinase HGK, 1 µmol/L single concentration.
Setting [15] is: kinase KIT, 1 µmol/L single concentration.
Where [16] appears, read: kinase PKCα, 1 µmol/L single concentration.
[17] abbreviates: kinase CLK1, 1 µmol/L single concentration.
Setting [18] is: kinase RSK2, 1 µmol/L single concentration.
[19] abbreviates: CDK3/CycE1 kinase assay, 1 µmol/L single concentration.
Where [20] appears, read: kinase FAK, 1 µmol/L single concentration.
Setting [21] is: kinase PLK3, 1 µmol/L single concentration.
The mark [22] stands for this setting: PAK6, 1 µmol/L single concentration.
Where [23] appears, read: kinase TBK1, 1 µmol/L single concentration.
Setting [24] is: AurC kinase assay, 1 µmol/L single concentration.

Turning to `CNC(=O)c1ccc(-c2cnc3ncc(Cc4ccc5ncccc5c4)n3n2)cc1F` [capmatinib], the inhibition at 1 µM was 1.1% in assay [1]; 2.68% in assay [2]; 4% in [3]; -3.51% in assay [4]; 8% in [5]; -3% in [6]. Besides, the inhibition at 1 µM is -14% in assay [7]; -6% in [8]; 0.709% in [9]; -34% in assay [10]; -2.83% in assay [11]; -4.72% in [12].
As for `COc1cc2ncnc(Nc3ccc(F)c(Cl)c3)c2cc1NC(=O)/C=C/CN1CCCCC1` [dacomitinib], the inhibition at 1 µM is 10% in assay [1] (setting [13]); 39% in [2] (setting [14]); -10% in assay [3] (setting [15]); -4.53% in [4] (setting [16]); 19% in [5] (setting [17]); 8% in assay [6] (setting [18]). Besides, the inhibition at 1 µM in assay [7] (setting [19]) was -1.66%; in assay [8] (setting [20]), -0.575%; in assay [9] (setting [21]), 3.6%; in assay [10] (setting [22]) it was 6.65%; in assay [11] (setting [23]) it was 17%; in [12] (setting [24]), 0.922%.
With `C[C@H](Nc1ncnc2nc[nH]c12)c1cc2cccc(Cl)c2c(=O)n1-c1ccccc1` [duvelisib], the inhibition at 1 µM in assay [1] (setting [13]) was 8%; in [2] (setting [14]) it was 2%; in assay [3] (setting [15]), -2.43%; in [4] (setting [16]), 0.321%; in assay [5] (setting [17]), -0.419%; in assay [6] (setting [18]) it was -3.62%. The inhibition at 1 µM in assay [7] (setting [19]) was -0.613%; in assay [8] (setting [20]) it was 4%; in [9] (setting [21]) it was 4.56%; in assay [10] (setting [22]), 3.69%; in [11] (setting [23]), -2.46%; in assay [12] (setting [24]) it was 10%.
As for `COC(=O)N[C@@H](C)CNc1nccc(-c2cn(C(C)C)nc2-c2cc(Cl)cc(NS(C)(=O)=O)c2F)n1` [encorafenib], the inhibition at 1 µM in assay [1] (setting [13]) was 12%; in assay [2] (setting [14]) it was 7.59%; in assay [3] (setting [15]), -1.43%; in assay [4] (setting [16]), 5%; in assay [5] (setting [17]), 3%; in assay [6] (setting [18]) it was 3.78%. Moreover, the inhibition at 1 µM in assay [7] (setting [19]) was -2%; in [8] (setting [20]), -3%; in assay [9] (setting [21]), 0.929%; in assay [10] (setting [22]), 13%; in assay [11] (setting [23]), 1.21%; in assay [12] (setting [24]), -10%.
`O=C(Nc1cnn2ccc(N3CCC[C@@H]3c3cc(F)ccc3F)nc12)N1CC[C@H](O)C1` [larotrectinib]: the inhibition at 1 µM in assay [1] (setting [13]) was 2.45%; in [2] (setting [14]), 2.53%; in assay [3] (setting [15]), -5%; in assay [4] (setting [16]) it was -3%; in [5] (setting [17]), 5.31%; in assay [6] (setting [18]) it was -7.4%. For the same compound, the inhibition at 1 µM is 1.79% in assay [7] (setting [19]); 4% in assay [8] (setting [20]); -0.714% in assay [9] (setting [21]); 13% in [10] (setting [22]); 0.0799% in assay [11] (setting [23]); -0.0475% in assay [12] (setting [24]).
In the case of `CCN1C(=O)N(c2c(F)c(OC)cc(OC)c2F)Cc2cnc3[nH]c(CN4CCOCC4)cc3c21` [pemigatinib], the inhibition at 1 µM in [1] (setting [13]) was -6%; in assay [2] (setting [14]) it was 4.64%; in assay [3], 23%; in assay [4] (setting [16]) it was -1.62%; in assay [5] (setting [17]), 5%; in assay [6] (setting [18]), -5%. The inhibition at 1 µM in [7] (setting [19]) is 11%; in [8] (setting [20]), 5.32%; in assay [9] (setting [21]), -1.19%; in assay [10] (setting [22]), 12%; in [11] (setting [23]) it was 0%; in assay [12] (setting [24]), 5%.
In the case of `FC(F)(F)c1ccc(CNc2ccc(Cc3c[nH]c4ncc(Cl)cc34)cn2)cn1` [pexidartinib], the inhibition at 1 µM in assay [1] (setting [13]) is -0.379%; in assay [2] (setting [14]), 24%; in assay [3] (setting [15]), 87%; in [4] (setting [16]), -8%; in assay [5] (setting [17]) it was 13%; in [6] (setting [18]) it was 14%. The inhibition at 1 µM in [7] (setting [19]) is -1.23%; in assay [8] (setting [20]) it was 30%; in assay [9] (setting [21]), 12%; in assay [10] (setting [22]) it was 0.273%; in assay [11] (setting [23]), 6%; in assay [12] (setting [24]), 68%.
For the compound `CO[C@]1(C(=O)N[C@@H](C)c2ccc(-n3cc(F)cn3)nc2)CC[C@H](c2nc(C)cc(Nc3cc(C)[nH]n3)n2)CC1` [pralsetinib], the inhibition at 1 µM in assay [1] (setting [13]) is -1.52%; in [2] (setting [14]), 3%; in assay [3] (setting [15]) it was 83%; in assay [4] (setting [16]), 3%; in [5] (setting [17]), 32%; in [6] (setting [18]), 23%. Moreover, the inhibition at 1 µM in [7] (setting [19]) was 42%; in assay [8] (setting [20]), 14%; in assay [9] (setting [21]), -0.12%; in assay [10] (setting [22]) it was 42%; in assay [11] (setting [23]), -0.586%; in assay [12] (setting [24]), 36%.
